Assay results reported in the supplement of paper PMC11208160.

Assay: recombinant barcode read abundance after kanamycin selection (control-corrected) (log10(CPM+1)); higher = more efficient recombination; sequences stand for … in AGTGCAGAGAAAATCGGCCAGTTTTCTCTGCCTGCAGTCCGCATGCCGT…AGATTTATGCAGCGGACTGCCTTTCTCCCAAAGTGATAAACCGGACAGTATCATGGACCGGTTTTCCCGGTAATCCGTATTTGCAAGGTTGGTTTCACT; site = the 11-nt target
Protocol: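 Pooled E. coli target-specificity screen for the IS621 bridge recombinase. Each library plasmid pairs an 11-nt target (CT core) with a bridge RNA whose target-binding loop (9-nt LTG + 4-nt RTG) is reprogrammed; the rest of the 177-nt WT IS621 bridge RNA scaffold is fixed. The plasmid is co-electroporated with a WT donor plasmid; recombinase is induced with 0.1 mM IPTG and recombinants are selected on kanamycin. Recombinant barcodes are sequenced, converted to CPM, averaged over two biological replicates and corrected by the unselected control CPM. Molecule = full bridge RNA written as DNA: LTG = specificity nt 1-9, RTG = reverse complement of specificity nt 8-11, in the WT scaffold.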
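Also: IS621 recombinase and bridge RNA in Escherichia coli cells.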

| Sequence | recombinant barcode read abundance (log10) |
| --- | --- |
| ACTAGGCCTTGGGTTCTAACCTGTTGCGG (site ACTAGGCCTCC) | 2.2 |
| ACTAGGCCTTGGGTTCTAACCTGTTGCGG (site ACTATCCCTCC) | 0.0234 |
| ACTAGGGCTTGGGTTCTAACCTGTTGCGG (site AATAGGGCTCC) | 0.729 |
| ACTAGGGCTTGGGTTCTAACCTGTTGCGG (site ACTAGGGCTCC) | 3.25 |
| ACTAGTCCTTGGGTTCTAACCTGTTGCCA (site ACTACTCCTTC) | 0.0602 |
| ACTAGTCCTTGGGTTCTAACCTGTTGCCA (site ACTAGTCCTTG) | 0.326 |
| ACTAGTCCTTGGGTTCTAACCTGTTGCTT (site ACTAGTCCTAA) | 0.294 |
| ACTAGTCCTTGGGTTCTAACCTGTTGCTT (site ACTAGTCCTAC) | 0.143 |
| ACTAGTCCTTGGGTTCTAACCTGTTGCTT (site ACTAGTCCTAG) | 0.189 |
| ACTAGTCCTTGGGTTCTAACCTGTTGCTT (site ACTAGTCCTAT) | 0.316 |
| ACTATCCCTTGGGTTCTAACCTGTTGCGG (site ACTAGGCCTCC) | 0.283 |
| ACTATCCCTTGGGTTCTAACCTGTTGCGG (site ACTATCCCTCC) | 1.16 |
| ACTCGCTCTTGGGTTCTAACCTGTTGCAC (site ACTCGCTCTGT) | 1.5 |
| ACTCGCTCTTGGGTTCTAACCTGTTGCAC (site GGGACTACTCG) | 0.0345 |
| ACTCTGGCTTGGGTTCTAACCTGTTGCCT (site ACACTGGCTAG) | 0.0916 |
| ACTCTGGCTTGGGTTCTAACCTGTTGCCT (site ACCCTGGCTAG) | 0.256 |
| ACTCTGGCTTGGGTTCTAACCTGTTGCCT (site ACGCTGGCTAG) | 0.254 |
| ACTCTGGCTTGGGTTCTAACCTGTTGCCT (site ACTCTGGCTAG) | 0.372 |

| Sequence | recombinant barcode read abundance (log10) |
| --- | --- |
| ACTGAGTCTTGGGTTCTAACCTGTTGCAA (site ACTGAGTCTAT) | 0.0772 |
| ACTGAGTCTTGGGTTCTAACCTGTTGCAA (site ACTGAGTCTTT) | 1.87 |
| ACTGATTCTTGGGTTCTAACCTGTTGCCT (site ACTGATACTAG) | 0.214 |
| ACTGATTCTTGGGTTCTAACCTGTTGCCT (site ACTGATCCTAG) | 0.0546 |
| ACTGATTCTTGGGTTCTAACCTGTTGCCT (site ACTGATGCTAG) | 0.0541 |
| ACTGATTCTTGGGTTCTAACCTGTTGCCT (site ACTGATTCTAG) | 1.34 |
| ACTGCGGCTTGGGTTCTAACCTGTTGCCT (site AATTCGGCTAG) | 0.136 |
| ACTGCGGCTTGGGTTCTAACCTGTTGCCT (site ACTGCGGCTAG) | 0.617 |
| ACTGCGTCTTGGGTTCTAACCTGTTGCCT (site ACTCCGTCTAG) | 0.119 |
| ACTGCGTCTTGGGTTCTAACCTGTTGCCT (site ACTGCGTCTAG) | 1.6 |
| ACTGCTCCTTGGGTTCTAACCTGTTGCCT (site ACTGCTCCTAG) | 0.881 |
| ACTGCTCCTTGGGTTCTAACCTGTTGCCT (site CTCTGAGCTCT) | 0.0903 |
| ACTGGGCCTTGGGTTCTAACCTGTTGCGA (site ACTCGGCCTTC) | 0.191 |
| ACTGGGCCTTGGGTTCTAACCTGTTGCGA (site ACTGGGCCTTC) | 2.67 |
| ACTGTAACTTGGGTTCTAACCTGTTGCTT (site ACTATAACTAA) | 0.102 |
| ACTGTAACTTGGGTTCTAACCTGTTGCTT (site ACTCTAACTAA) | 0.0186 |
| ACTGTAACTTGGGTTCTAACCTGTTGCTT (site ACTGTAACTAA) | 1.06 |
| ACTGTAACTTGGGTTCTAACCTGTTGCTT (site ACTTTAACTAA) | 0.0634 |
